From ChEMBL document CHEMBL1201862, “PubChem BioAssay data set” (2004)
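These data come from cells grown in 96-well plates and exposed to compound for 48 hours at five concentrations. Here, GI50 denotes the concentration required for 50% inhibition of growth.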 Calls of active or inactive are those of the source. Cut-off read from the data, not from the text of the source: active = GI50 up to about 1.1 µM and inactive = higher.

Assays:
Test in all cases: NCI tumour cell line growth inhibition, 48 h
[1] = system: COLO 205
[2] = system: EKVX
[3] = system: HT-29
[4] = system: K562
[5] = system: MOLT-4
[6] = system: Malme-3M
[7] = system: NCI-H23
[8] = system: RXF 393
[9] = system: SK-MEL-28
[10] = system: SK-MEL-2
[11] = system: SK-OV-3
[12] = system: SN12C
[13] = system: SNB-19
[14] = system: SNB-75
[15] = system: SW-620
[16] = system: U-251
[17] = system: BT-549
[18] = system: MDA-N
[19] = system: T47D
[20] = system: NCI/ADR-RES

SMILES | GI50 [1] | GI50 [2] | GI50 [3] | GI50 [4] | GI50 [5] | GI50 [6] | GI50 [7] | GI50 [8] | GI50 [9] | GI50 [10] | GI50 [11] | GI50 [12] | GI50 [13] | GI50 [14] | GI50 [15] | GI50 [16] | GI50 [17] | GI50 [18] | GI50 [19] | GI50 [20]
O=C(CC(O)(c1ccccc1)c1ccc(Cl)cc1)NC(=O)c1ccccc1O (stereo unspecified) | 14.4 µM (inactive) | 20.7 µM (inactive) | 18.8 µM (inactive) | 4.6 µM (inactive) | 10 µM (inactive) | 14.9 µM (inactive) | 6.5 µM (inactive) | 11.7 µM (inactive) | 19.8 µM (inactive) | 5.3 µM (inactive) | 17.1 µM (inactive) | 3.76 µM (inactive) | 4.47 µM (inactive) | 6.44 µM (inactive) | 18.7 µM (inactive) | 3.38 µM (inactive) |  |  |  | 
O=P1(c2ccccc2)C(c2ccccc2)CCC1c1ccccc1 (stereo unspecified) | 66.7 µM (inactive) | 29.5 µM (inactive) |  | 10.8 µM (inactive) | 32.2 µM (inactive) |  | 48.4 µM (inactive) | 96.8 µM (inactive) | > 100 µM (inactive) |  | 40.9 µM (inactive) | 34.9 µM (inactive) | > 100 µM (inactive) | 57.3 µM (inactive) | 89.9 µM (inactive) |  | 29.7 µM (inactive) | 15.1 µM (inactive) |  | 
O=C(Cc1nc2sc3c(c2c(=O)[nH]1)CCCC3)Nc1ccccc1 | > 100 µM (inactive) | > 100 µM (inactive) | > 100 µM (inactive) | > 100 µM (inactive) | > 100 µM (inactive) | > 100 µM (inactive) | > 100 µM (inactive) | 15.5 µM (inactive) | > 100 µM (inactive) | > 100 µM (inactive) | 43.5 µM (inactive) | > 100 µM (inactive) | 81.8 µM (inactive) | 25.1 µM (inactive) | > 100 µM (inactive) | > 100 µM (inactive) |  |  |  | 
CN(C)c1n/c(=N/Cc2cccnc2)ss1 | > 10 µM (inactive) | > 10 µM (inactive) | > 10 µM (inactive) | 1.12 µM (active) | 3.5 µM (inactive) | > 10 µM (inactive) | > 10 µM (inactive) | > 10 µM (inactive) | > 10 µM (inactive) |  | > 10 µM (inactive) | > 10 µM (inactive) |  | > 10 µM (inactive) | > 10 µM (inactive) |  |  | > 10 µM (inactive) | > 10 µM (inactive) | 
CN1CCC(OC(=O)Oc2ccccc2)(c2ccccc2)CC1 | 12.5 µM (inactive) | 45.8 µM (inactive) | 4.51 µM (inactive) | 24.7 µM (inactive) | 13.1 µM (inactive) | 17.7 µM (inactive) | 14.4 µM (inactive) | 37.3 µM (inactive) | 20.6 µM (inactive) | 17.9 µM (inactive) | 24.9 µM (inactive) | 15.4 µM (inactive) | 25.4 µM (inactive) | 24.4 µM (inactive) | 25.7 µM (inactive) | 21.9 µM (inactive) |  | 17.6 µM (inactive) | 26.6 µM (inactive) | 16.6 µM (inactive)
Sc1cnnc2ccc(Br)cc12 | > 100 µM (inactive) | 22.5 µM (inactive) | 26.4 µM (inactive) | 37.8 µM (inactive) | 40.2 µM (inactive) | 24.7 µM (inactive) | 28.8 µM (inactive) | 22.7 µM (inactive) | 40.4 µM (inactive) | 26.6 µM (inactive) | > 100 µM (inactive) | 69.5 µM (inactive) | 74.3 µM (inactive) | > 100 µM (inactive) | > 100 µM (inactive) | 38.7 µM (inactive) | 37.3 µM (inactive) |  | 51.9 µM (inactive) | 48.6 µM (inactive)
O=C(C1OC1c1ccc(Br)cc1O)C12CC3CC(CC(C3)C1)C2 (stereo unspecified) |  | > 100 µM (inactive) | 28.8 µM (inactive) | 15.4 µM (inactive) | 16.1 µM (inactive) | 20 µM (inactive) | 19.2 µM (inactive) | 21.7 µM (inactive) | 19.4 µM (inactive) |  |  | 15.6 µM (inactive) | 34.8 µM (inactive) | 14.5 µM (inactive) | 18.7 µM (inactive) | 15.7 µM (inactive) |  | 17 µM (inactive) | 40.8 µM (inactive) | 30 µM (inactive)
CC12C3CC4C5CC(C(C53)[C@@H]1NCc1ccccc1)C42 (stereo partly specified) | 18.5 µM (inactive) | > 100 µM (inactive) | 24.4 µM (inactive) | 62.7 µM (inactive) | > 100 µM (inactive) | > 100 µM (inactive) | > 100 µM (inactive) | 84.9 µM (inactive) | > 100 µM (inactive) | > 100 µM (inactive) | > 100 µM (inactive) | > 100 µM (inactive) | > 100 µM (inactive) | > 100 µM (inactive) | > 100 µM (inactive) | 97.5 µM (inactive) |  |  |  | 
CCOC(=O)CCC1(CCC(=O)OCC)CCCCCCCCC(CCC(=O)OCC)(CCC(=O)OCC)C(=O)C1=O | > 100 µM (inactive) | > 100 µM (inactive) | > 100 µM (inactive) | > 100 µM (inactive) |  | > 100 µM (inactive) | > 100 µM (inactive) |  | > 100 µM (inactive) | > 100 µM (inactive) | > 100 µM (inactive) | > 100 µM (inactive) | > 100 µM (inactive) | 82.8 µM (inactive) | > 100 µM (inactive) | > 100 µM (inactive) |  | > 100 µM (inactive) | 79.1 µM (inactive) | > 100 µM (inactive)
CCCCCCCCOCC(O)CO (stereo unspecified) | > 100 µM (inactive) | > 100 µM (inactive) | > 100 µM (inactive) | > 100 µM (inactive) | 44.7 µM (inactive) | > 100 µM (inactive) | > 100 µM (inactive) | > 100 µM (inactive) | > 100 µM (inactive) | > 100 µM (inactive) | > 100 µM (inactive) | > 100 µM (inactive) | > 100 µM (inactive) | 43.3 µM (inactive) | > 100 µM (inactive) | > 100 µM (inactive) |  |  |  | 
COC(=O)CCCc1ccc2c(c1)CC1(Cc3ccccc3C1)C2 | 26.3 µM (inactive) | > 100 µM (inactive) | 31 µM (inactive) |  | 0.333 µM (active) | 87.1 µM (inactive) | 46.3 µM (inactive) | 77.1 µM (inactive) |  | 19.5 µM (inactive) | > 100 µM (inactive) | 88.5 µM (inactive) |  |  |  | > 100 µM (inactive) |  | 23.2 µM (inactive) | > 100 µM (inactive) | 80 µM (inactive)
Cc1ccc(NC(=O)/C(=N/NC(=O)CC#N)C2C(=O)N(c3ccccc3)N=C2N)cc1C (stereo unspecified) | > 100 µM (inactive) | > 100 µM (inactive) | > 100 µM (inactive) | > 100 µM (inactive) | > 100 µM (inactive) | > 100 µM (inactive) | > 100 µM (inactive) | > 100 µM (inactive) | > 100 µM (inactive) | > 100 µM (inactive) | > 100 µM (inactive) | > 100 µM (inactive) | > 100 µM (inactive) | > 100 µM (inactive) | > 100 µM (inactive) | > 100 µM (inactive) |  |  |  | 
CN(C)CCCNC(=O)CCNC(=O)c1cc(NC(=O)c2cc(NC(=O)c3cc(NC(=O)CCCNC(=O)c4cc(NC(=O)c5cc(NC(=O)c6nccn6C)cn5C)cn4C)cn3C)cn2C)cn1C | > 100 µM (inactive) | > 100 µM (inactive) | > 100 µM (inactive) | > 100 µM (inactive) | > 100 µM (inactive) | > 100 µM (inactive) | > 100 µM (inactive) | > 100 µM (inactive) | > 100 µM (inactive) | > 100 µM (inactive) | > 100 µM (inactive) | > 100 µM (inactive) | > 100 µM (inactive) | > 100 µM (inactive) | > 100 µM (inactive) | > 100 µM (inactive) |  | > 100 µM (inactive) |  | > 100 µM (inactive)
c1ccc2nc3c(nc2c1)sc1ccccc13 | 58.3 µM (inactive) | 16.1 µM (inactive) | 39.4 µM (inactive) | > 100 µM (inactive) | 21.8 µM (inactive) | 46.9 µM (inactive) | 23.2 µM (inactive) |  | > 100 µM (inactive) | 67.5 µM (inactive) | 13.2 µM (inactive) | 34 µM (inactive) | 14.5 µM (inactive) | 22.2 µM (inactive) | 56 µM (inactive) | 16 µM (inactive) | 39.2 µM (inactive) |  | > 100 µM (inactive) | 39.7 µM (inactive)
COc1cc2cnc3c4cc(OC)c(OC(C)C)cc4ccc3c2cc1OC | > 100 µM (inactive) | > 100 µM (inactive) | > 100 µM (inactive) | > 100 µM (inactive) | > 100 µM (inactive) | > 100 µM (inactive) | > 100 µM (inactive) | > 100 µM (inactive) | > 100 µM (inactive) | > 100 µM (inactive) | > 100 µM (inactive) | > 100 µM (inactive) | > 100 µM (inactive) | > 100 µM (inactive) | > 100 µM (inactive) | > 100 µM (inactive) |  |  |  | 
NC(=O)c1nnn(-c2ccccc2)c1O | > 100 µM (inactive) | > 100 µM (inactive) | > 100 µM (inactive) | > 100 µM (inactive) | > 100 µM (inactive) | > 100 µM (inactive) | > 100 µM (inactive) | > 100 µM (inactive) | > 100 µM (inactive) | > 100 µM (inactive) | > 100 µM (inactive) | > 100 µM (inactive) | > 100 µM (inactive) | > 100 µM (inactive) | > 100 µM (inactive) | > 100 µM (inactive) | > 100 µM (inactive) |  | > 100 µM (inactive) | > 100 µM (inactive)
CN(C)CCC1(C2=CCCC2)CC/C(=C\c2ccc(Cl)cc2)C1=O (stereo unspecified) | 12.4 µM (inactive) | 7.16 µM (inactive) | 2.95 µM (inactive) | 2.58 µM (inactive) | 2.24 µM (inactive) | 6.56 µM (inactive) | 14.5 µM (inactive) | 2.31 µM (inactive) | 2.49 µM (inactive) | 4.45 µM (inactive) | 6.93 µM (inactive) | 11.9 µM (inactive) | 11.3 µM (inactive) | 6.85 µM (inactive) | 9.4 µM (inactive) | 8.87 µM (inactive) |  |  |  | 
